Active and inactive are the calls of the source. The rule behind the calls is not given here.
Key:
[1] = target: T1, Group 10 secretory phospholipase A2 (Homo sapiens, UniProt O15496); assay: Inhibition of sPLA2-10 (unknown origin) using 1-palmitoyl-2-oleoyl-sn-glycero-3-phosphocholine as substrate pretreated for 20 mins followed by substrate addition and measured after 60 mins by NEFA based assay
T1 sequence (O15496 whole entry): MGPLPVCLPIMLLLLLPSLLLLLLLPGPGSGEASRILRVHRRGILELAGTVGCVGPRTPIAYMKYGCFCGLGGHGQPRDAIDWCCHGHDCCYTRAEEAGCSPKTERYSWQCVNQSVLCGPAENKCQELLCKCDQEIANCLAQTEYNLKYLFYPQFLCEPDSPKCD

[2] = target: T2, Phospholipase A2, membrane associated (Homo sapiens, UniProt P14555); assay: Inhibition of sPLA2-2A (unknown origin) using 1-palmitoyl-2-oleoyl-sn-glycero-3-phosphocholine as substrate pretreated for 20 mins followed by substrate addition and measured after 60 mins by NEFA based assay
T2 sequence (P14555 whole entry): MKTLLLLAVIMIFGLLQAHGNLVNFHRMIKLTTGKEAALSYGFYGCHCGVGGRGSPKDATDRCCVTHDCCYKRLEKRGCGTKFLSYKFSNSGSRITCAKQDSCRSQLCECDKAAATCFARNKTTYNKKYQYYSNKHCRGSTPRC

[3] = target: T3, Phospholipase A2 group V (Homo sapiens, UniProt P39877); assay: Inhibition of sPLA2-5 (unknown origin) using 1-palmitoyl-2-oleoyl-sn-glycero-3-phosphocholine as substrate pretreated for 20 mins followed by substrate addition and measured after 60 mins by NEFA based assay
T3 sequence (P39877 whole entry): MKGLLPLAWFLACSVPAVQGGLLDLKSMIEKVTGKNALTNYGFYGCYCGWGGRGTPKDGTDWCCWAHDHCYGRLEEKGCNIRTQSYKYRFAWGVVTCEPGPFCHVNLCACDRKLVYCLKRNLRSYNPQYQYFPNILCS

[4] = target: T1, Group 10 secretory phospholipase A2; assay: Inhibition of recombinant human sPLA2-10 using human HDL as substrate pretreated for 20 mins followed by substrate addition and measured after 60 mins by NEFA based assay
[5] = Intrinsic clearance in human hepatocytes assessed per million cells; type: ADME, cell-based, Hepatocyte; settings: read-out: CLH
[6] = target: T4, Phospholipase A2 group V (Homo sapiens) (UniProt P39877); assay: Inhibition of sPLA2-5 (unknown origin) at 10 uM using 1-palmitoyl-2-oleoyl-sn-glycero-3-phosphocholine as substrate pretreated for 20 mins followed by substrate addition and measured after 60 mins by NEFA based assay
T4 sequence (whole entry): T3 sequence (P39877 whole entry)

[7] = system: Mus musculus; assay: Anti-atherosclerosis activity in ApoE knockout pro-atherogenic western diet-induced Tac mouse carotid artery ligation model of atherosclerosis assessed as reduction in coronary flow reserve at 75 to 150 umol/kg/day mixed with food measured for 3 weeks by doppler echocardiography; type: functional, organism-based
[8] = organism: Homo sapiens; assay: Selectivity ratio of IC50 for sPLA2-2A (unknown origin) to IC50 for sPLA2-10 (unknown origin)
[9] = organism: Homo sapiens; assay: Selectivity ratio of IC50 for sPLA2-5 (unknown origin) to IC50 for sPLA2-10 (unknown origin)
[10] = target: Group 10 secretory phospholipase A2 (Mus musculus) (UniProt Q9QXX3); assay: Inhibition of mouse sPLA2-10
Sequence of Group 10 secretory phospholipase A2 (Mus musculus) (Q9QXX3 whole entry): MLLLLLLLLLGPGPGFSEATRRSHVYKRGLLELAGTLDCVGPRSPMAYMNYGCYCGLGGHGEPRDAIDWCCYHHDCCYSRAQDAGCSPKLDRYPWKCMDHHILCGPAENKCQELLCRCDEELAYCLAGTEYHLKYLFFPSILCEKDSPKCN

[11] = system: Mus musculus; assay: Anti-atherosclerosis activity in ApoE knockout pro-atherogenic western diet-induced Tac mouse carotid artery ligation model of atherosclerosis assessed as reduction in plasma free cholesterol levels at 75 umol/kg/day mixed with food measured for 3 weeks; type: functional, organism-based
[12] = system: Mus musculus; assay: Anti-atherosclerosis activity in ApoE knockout pro-atherogenic western diet-induced Tac mouse carotid artery ligation model of atherosclerosis assessed as reduction in plasma triglyceride levels at 75 umol/kg/day mixed with food measured for 3 weeks; type: functional, organism-based
[13] = system: Mus musculus; assay: Anti-atherosclerosis activity in ApoE knockout pro-atherogenic western diet-induced Tac mouse carotid artery ligation model of atherosclerosis assessed as reduction in plasma free fatty acid levels at 75 umol/kg/day mixed with food measured for 3 weeks; type: functional, organism-based
[14] = system: Mus musculus; assay: Anti-atherosclerosis activity in ApoE knockout pro-atherogenic western diet-induced Tac mouse carotid artery ligation model of atherosclerosis assessed as reduction in plasma esterified cholesterol levels at 75 umol/kg/day mixed with food measured for 3 weeks; type: functional, organism-based
[15] = system: Mus musculus; assay: Anti-atherosclerosis activity in ApoE knockout pro-atherogenic western diet-induced Tac mouse carotid artery ligation model of atherosclerosis assessed as reduction in plasma lipoprotein-associated cholesterol fraction levels at 75 umol/kg/day mixed with food measured for 3 weeks; type: functional, organism-based
[16] = system: Mus musculus; assay: Anti-atherosclerosis activity in ApoE knockout pro-atherogenic western diet-induced Tac mouse carotid artery ligation model of atherosclerosis assessed as reduction in plasma triglyceride levels at 150 umol/kg/day mixed with food measured for 3 weeks; type: functional, organism-based
[17] = system: Mus musculus; assay: Anti-atherosclerosis activity in ApoE knockout pro-atherogenic western diet-induced Tac mouse carotid artery ligation model of atherosclerosis assessed as reduction in plasma free fatty acid levels at 150 umol/kg/day mixed with food measured for 3 weeks; type: functional, organism-based
[18] = system: Mus musculus; assay: Anti-atherosclerosis activity in ApoE knockout pro-atherogenic western diet-induced Tac mouse carotid artery ligation model of atherosclerosis assessed as reduction in plasma esterified cholesterol levels at 150 umol/kg/day mixed with food measured for 3 weeks; type: functional, organism-based
[19] = system: Mus musculus; assay: Anti-atherosclerosis activity in ApoE knockout pro-atherogenic western diet-induced Tac mouse carotid artery ligation model of atherosclerosis assessed as reduction in plasma free cholesterol levels at 150 umol/kg/day mixed with food measured for 3 weeks; type: functional, organism-based
[20] = system: Mus musculus; assay: Anti-atherosclerosis activity in ApoE knockout pro-atherogenic western diet-induced Tac mouse carotid artery ligation model of atherosclerosis assessed as reduction in plasma lipoprotein-associated cholesterol fraction levels at 150 umol/kg/day mixed with food measured for 3 weeks; type: functional, organism-based
[21] = system: Mus musculus; assay: Anti-atherosclerosis activity in ApoE knockout pro-atherogenic western diet-induced Tac mouse carotid artery ligation model of atherosclerosis assessed as reduction in heart rate at 75 to 150 umol/kg/day mixed with food measured for 3 weeks by doppler echocardiography; type: functional, organism-based
[22] = system: Mus musculus; assay: Anti-atherosclerosis activity in ApoE knockout pro-atherogenic western diet-induced Tac mouse carotid artery ligation model of atherosclerosis assessed as reduction in thickness of artery wall at 75 to 150 umol/kg/day mixed with food measured for 3 weeks by ultrasound biomicroscopy; type: functional, organism-based
[23] = system: Mus musculus; assay: Anti-atherosclerosis activity in ApoE knockout pro-atherogenic western diet-induced Tac mouse carotid artery ligation model of atherosclerosis assessed as increase in lumen thickness at 75 to 150 umol/kg/day mixed with food measured for 3 weeks by ultrasound biomicroscopy; type: functional, organism-based
[24] = system: Mus musculus; assay: Anti-atherosclerosis activity in ApoE knockout pro-atherogenic western diet-induced Tac mouse carotid artery ligation model of atherosclerosis assessed as reduction in neointima and media formation at 75 to 150 umol/kg/day mixed with food measured for 3 weeks; type: functional, organism-based
[25] = target: Group 10 secretory phospholipase A2 (Homo sapiens) (UniProt O15496)
[26] = target: Phospholipase A2, membrane associated (Homo sapiens) (UniProt P14555); assay: Inhibition of sPLA2-2A (unknown origin) at 10 uM using 1-palmitoyl-2-oleoyl-sn-glycero-3-phosphocholine as substrate pretreated for 20 mins followed by substrate addition and measured after 60 mins by NEFA based assay
[27] = Lipophilicity, log D of compound at pH 7.4; settings: buffer
[28] = system: Mus musculus; assay: Unbound clearance in C57Bl/6J mouse administered iv or po; type: ADME, organism-based; settings: in vivo

| IC50 [1] [nM] | IC50 [2] [nM] | IC50 [3] [nM] | IC50 [4] [nM] | SMILES | other results |
| --- | --- | --- | --- | --- | --- |
| 360 | 340 | 1600 | 3400 | CC(Cc1ccnc(-n2c(C(N)=O)cc3ccc(OC(F)(F)F)cc32)c1)C(=O)O (stereo in doubt) |  |
| 39 | 140 | 2100 | 140 | COC(Cc1cccc(-n2c(C(N)=O)cc3ccc(OC(F)(F)F)cc32)c1)C(=O)O (stereo in doubt; 11) |  |
| 240 | 1200 | 2100 | 1600 | NC(=O)c1cc2ccc(OC(F)(F)F)cc2n1-c1ccnc(CCC(=O)O)c1 | hepatocyte CLint [5]: < 5 µL/min/1e6 cells |
|  |  |  |  | CC(CC(=O)O)c1cccc(-n2c(C(N)=O)cc3ccc(OC(F)(F)F)cc32)n1 (single isomer, unassigned; (+)) [listing 1 of 2 here] | inhibition [6]: inactive |
| 320 | 3100 | > 10000 |  | CC(C)(Cc1cccc(-n2c(C(N)=O)cc3ccc(OC(F)(F)F)cc32)n1)C(=O)O |  |
| 430 | 1900 | 5900 |  | NC(=O)c1cc2ccc(OC(F)(F)F)cc2n1-c1ccc(CCC(=O)O)o1 |  |
| 32 | 57 | 510 | 350 | CC(Cc1cccc(-n2c(C(N)=O)cc3ccc(OC(F)(F)F)cc32)c1)C(=O)O (stereo in doubt; 10) |  |
| 570 | 1700 | > 10000 |  | CC(Cc1cccc(-n2c(C(N)=O)cc3ccc(OC(F)(F)F)cc32)n1)C(=O)O (stereo in doubt) |  |
|  |  |  |  | CC(CC(=O)O)c1cccc(-n2c(C(N)=O)cc3ccc(OC(F)(F)F)cc32)n1 (stereo in doubt; (-)-17) | Activity [7]: inactive; Ratio IC50 [8]: 45; Ratio IC50 [9]: 390; IC90 [10]: 820 nM; Activity [11]: inactive; Activity [12]: inactive; Activity [13]: inactive; Activity [14]: inactive; Activity [15]: inactive; Activity [16]: Active; Activity [17]: Active; Activity [18]: Active; Activity [19]: Active; Activity [20]: Active; Activity [21]: inactive; Activity [22]: inactive; Activity [23]: inactive; Activity [24]: inactive; IC90 [25]: 362 nM |
| 940 | 840 | > 10000 |  | CCC(Cc1cccc(-n2c(C(N)=O)cc3ccc(OC(F)(F)F)cc32)n1)C(=O)O (stereo in doubt) |  |
| 100 | 810 | > 10000 | 2800 | CC(Cc1cccc(-n2c(C(N)=O)cc3ccc(OC(F)(F)F)cc32)c1)C(=O)O (stereo in doubt) |  |
| 170 | 2700 |  |  | COC(Cc1cccc(-n2c(C(N)=O)cc3ccc(OC(F)(F)F)cc32)c1)C(=O)O (stereo in doubt) [listing 1 of 2 here] |  |
| 65 | 92 | 510 | 250 | CC(Cc1cccc(-n2c(C(N)=O)cc3ccc(OC(F)(F)F)cc32)n1)C(=O)O (stereo in doubt; 14) |  |
| 500 | 3800 |  |  | CC(CC(=O)O)c1cccc(-n2c(C(N)=O)cc3ccc(OC(F)(F)F)cc32)n1 (single isomer, unassigned; (+)) [listing 2 of 2 here] |  |
| 170 | 170 | 1900 | 330 | CCC(Cc1cccc(-n2c(C(N)=O)cc3ccc(OC(F)(F)F)cc32)n1)C(=O)O (stereo in doubt; 15) |  |
| 110 | 290 | 720 | 640 | NC(=O)c1cc2ccc(OC(F)(F)F)cc2n1-c1cc(CCC(=O)O)ccn1 | hepatocyte CLint [5]: < 5 µL/min/1e6 cells |
| 4800 | 4000 |  |  | NC(=O)c1cc2ccc(OC(F)(F)F)cc2n1-c1ccn(CCC(=O)O)n1 | inhibition [6]: inactive |
| 4800 |  |  |  | NC(=O)c1cc2ccc(OC(F)(F)F)cc2n1-c1ccc(=O)n(CCC(=O)O)c1 | inhibition [26]: inactive; inhibition [6]: inactive |
|  |  |  |  | COC(Cc1cccc(-n2c(C(N)=O)cc3ccc(OC(F)(F)F)cc32)c1)C(=O)O (stereo in doubt) [listing 2 of 2 here] | inhibition [6]: inactive |
| 200 | 3900 | 8600 |  | C[C@H](CC(=O)O)c1cccc(-n2c(C(N)=O)cc3ccc(OC(F)(F)F)cc32)c1 |  |
| 15 | 820 | 5100 | 110 | C[C@@H](CC(=O)O)c1cccc(-n2c(C(N)=O)cc3ccc(OC(F)(F)F)cc32)c1 | logD [27]: 1.3; Ratio IC50 [8]: 60; Ratio IC50 [9]: 360; CL free [28]: 1025 mL/min/kg |
| 140 | 44 | 180 | 830 | CC(Cc1ccnc(-n2c(C(N)=O)cc3ccc(OC(F)(F)F)cc32)c1)C(=O)O (stereo in doubt; 13) |  |
| > 10000 | 4500 | 2700 |  | NC(=O)c1cc2ccc(OC(F)(F)F)cc2n1-c1cnn(CCC(=O)O)c1 |  |
| 29 | 470 | 2300 | 250 | NC(=O)c1cc2ccc(OC(F)(F)F)cc2n1-c1cccc(CCC(=O)O)n1 | hepatocyte CLint [5]: < 5 µL/min/1e6 cells |
|  |  |  | 310 | NC(=O)c1cc2ccc(OC(F)(F)F)cc2n1-c1cccc(CCC(=O)O)c1 | hepatocyte CLint [5]: 9.33 µL/min/1e6 cells; CL free [28]: 1446 mL/min/kg |

From ChEMBL document CHEMBL4196112, “Design of Selective sPLA2-X Inhibitor (-)-2-{2-[Carbamoyl-6-(trifluoromethoxy)-1H-indol-1-yl]pyridine-2-yl}propanoic Acid” (ACS Med Chem Lett, 2018)
